Like-named read-outs stand apart in the source and are kept apart here.
How the values were obtained:
[1] = tested on: ovarian cancer cells (PA-1); experiment: Cancer cell line growth inhibition (SRB assay); type: cell-based; settings: read-out: Cancer Cell Line GI50 Range PA-1
[2] = tested on: colon cancer cells (HCT116); experiment: Cancer cell line growth inhibition (SRB assay); type: cell-based; settings: Homo sapiens, HCT-116, read-out: Cancer Cell Line GI50 Range HCT116
human PLK4 = target: T1, human PLK4 (Homo sapiens, UniProt O00444); experiment: PLK4 inhibition assay (indirect ELISA); type: biochemical; settings: 15 μM ATP
T1 construct: amino terminal GST fusion of residues 1-391 of human PLK4; made in house; host or cells: E. coli
T1 sequence (O00444 1-391): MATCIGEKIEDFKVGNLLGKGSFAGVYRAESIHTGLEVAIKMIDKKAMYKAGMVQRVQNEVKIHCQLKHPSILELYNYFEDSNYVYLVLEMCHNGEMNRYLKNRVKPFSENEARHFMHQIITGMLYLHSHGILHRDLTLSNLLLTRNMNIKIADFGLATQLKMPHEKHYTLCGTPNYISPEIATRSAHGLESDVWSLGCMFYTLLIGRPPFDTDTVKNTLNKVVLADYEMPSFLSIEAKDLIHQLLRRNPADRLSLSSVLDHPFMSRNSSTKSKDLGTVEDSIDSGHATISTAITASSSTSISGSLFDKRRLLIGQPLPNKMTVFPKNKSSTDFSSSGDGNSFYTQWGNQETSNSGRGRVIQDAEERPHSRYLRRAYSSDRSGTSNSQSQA
Method: Active PLK4 was purified from an E. coli expression system as an amino terminal GST fusion of residues 1-391 of human PLK4. The protein was purified from clarified cell extracts after induction at 15° C. overnight using glutathione sepharose, gel permeation chromatography, and ion exchange (Resource Q). The resulting protein was dephosphorylated with lambda phosphatase (NEB cat# P0753), and resolved from the phosphatase using gluthione sepharose. The dephosphorylated GST-PLK4 was stored in aliquots at −80° C. until use.
PLK4 activity was measured using an indirect ELISA detection system. Dephosphorylated GST-PLK4 (4 nM) was incubated in the presence of 15 μM ATP (Sigma cat# A7699), 50 mM HEPES-[…] pH 7.4, 10 mM MgCl2, 0.01% Brij 35 (Sigma cat# 03-3170), in a 96 well microtitre plate pre-coated with MBP (Millipore cat#30-011). The reaction was allowed to proceed for 30 minutes, followed by 5 washes of the plate with Wash Buffer (50 mM TRIS-Cl pH 7.4 and 0.2% Tween 20), and incubation for 30 minutes with a 1:3000 dilution of primary antibody (Cell Signaling cat# 9381). The plate was washed 5 times with Wash Buffer, incubated for 30 minutes in the presence of secondary antibody coupled to horse radish peroxidase (BioRad cat# 1721019, 1:3000 concentration), washed an additional 5 times with Wash Buffer, and incubated in the presence of TMB substrate (Sigma cat# T0440). The colourimetric reaction was allowed to continue for 5 minutes, followed by addition of stop solution (0.5 N sulphuric acid), and quantified by detection at 450 nm with either a monochromatic or filter based plate reader (Molecular Devices M5 or Beckman DTX880, respectively).
Compound inhibition was determined at either a fixed concentration (10 μM) or at a variable inhibitor concentration (typically 50 μM to 0.1 μM in a 10 point dose response titration). Compounds were pre-incubated in the presence of enzyme for 15 minutes prior to addition of ATP and the activity remaining quantified using the above described activity assay. The % Inhibition of a compound was determined using the following formula: % Inhibition=100×(1−(experimental value−background value)/(high activity control−background value)). The IC50 value was determined using a non-linear 4 point logistic curve fit (XLfit4, IDBS) with the formula: (A+(B/(1+((x/C)^D)))), where A=background value, B=range, C=inflection point, D=curve fit parameter.

human TTK = target: T2, human TTK (Homo sapiens, UniProt P33981); experiment: TTK inhibition assay (indirect ELISA); type: biochemical; settings: read-out: TTK IC50 Range
T2 construct: amino terminal GST fusion of full length human TTK; purchased Invitrogen
T2 sequence (P33981 1-857): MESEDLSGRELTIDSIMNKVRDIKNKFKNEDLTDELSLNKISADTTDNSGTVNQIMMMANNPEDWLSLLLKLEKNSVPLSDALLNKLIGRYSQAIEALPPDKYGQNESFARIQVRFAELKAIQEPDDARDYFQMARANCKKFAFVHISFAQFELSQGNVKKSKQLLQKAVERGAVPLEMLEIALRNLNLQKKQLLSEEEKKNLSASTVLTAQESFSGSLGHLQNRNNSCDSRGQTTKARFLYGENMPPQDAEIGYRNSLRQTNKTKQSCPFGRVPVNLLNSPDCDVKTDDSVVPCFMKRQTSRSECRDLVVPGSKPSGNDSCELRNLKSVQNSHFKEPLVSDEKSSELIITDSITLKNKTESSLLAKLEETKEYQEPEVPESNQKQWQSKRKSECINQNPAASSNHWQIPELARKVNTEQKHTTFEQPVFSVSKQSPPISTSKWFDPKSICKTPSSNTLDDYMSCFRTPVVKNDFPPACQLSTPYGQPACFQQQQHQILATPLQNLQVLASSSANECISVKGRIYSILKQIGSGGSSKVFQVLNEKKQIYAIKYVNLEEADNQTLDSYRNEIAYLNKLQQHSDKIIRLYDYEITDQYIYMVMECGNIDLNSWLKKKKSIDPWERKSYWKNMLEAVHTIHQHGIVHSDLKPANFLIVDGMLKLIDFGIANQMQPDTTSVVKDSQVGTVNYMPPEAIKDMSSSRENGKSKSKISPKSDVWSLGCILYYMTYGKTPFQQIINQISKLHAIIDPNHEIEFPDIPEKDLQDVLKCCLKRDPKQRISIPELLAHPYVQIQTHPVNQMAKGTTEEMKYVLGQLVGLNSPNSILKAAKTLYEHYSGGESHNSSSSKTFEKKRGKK

Breast cancer cells = experiment: Cancer cell line growth inhibition (SRB assay); type: cell-based; settings: Homo sapiens; MDA-MB-468; read-out: Cancer Cell Line GI50 Range MDA-MB-468
[3] = PA-1 ovarian cancer cells, SRB assay
[4] = HCT116 colon cancer cells, SRB assay

Compound | GI50 [1, 3] | GI50 [2, 4] | IC50 (human PLK4) | IC50 (human TTK) | GI50 ([1]; Homo sapiens, PA-1) | GI50 [2] | GI50 (Breast cancer cells)
CN1C2CCC1CC(Oc1ccc(-c3n[nH]c4ccc(C(=O)N[C@H](c5ccsc5)C5CCCC5)cc34)cc1)C2 (stereo partly drawn) [Example A248, N-((S)-cyclopentyl(thiophen-3-yl)methyl)-3-(4-(((1R,3R,5S)-8-methyl-8-azabicyclo[3.2.1]octan-3-yl)oxy)phenyl)-1H-indazole-5-carboxamide] | – | – | < 50 nM | < 100 nM | 100 to 500 nM | 100 to 500 nM | 100 to 500 nM
CC(C)[C@H](NC(=O)c1ccc2[nH]nc(-c3ccc4c(c3)CCC3(CCN(C)CC3)O4)c2c1)c1ccccc1Cl [Example A250, (S)-N-(1-(2-chlorophenyl)-2-methylpropyl)-3-(1′-methylspiro[chroman-2,4′-piperidin]-6-yl)-1H-indazole-5-carboxamide] | – | – | < 50 nM | < 100 nM | < 100 nM | < 100 nM | 100 to 500 nM
CN1CCC2(CCc3cc(-c4n[nH]c5ccc(C(=O)N[C@H](c6ccccn6)C6CCCC6)cc45)ccc3O2)CC1 [Example A253, (S)-N-(cyclopentyl(pyridin-2-yl)methyl)-3-(1′-methylspiro[chroman-2,4′-piperidin]-6-yl)-1H-indazole-5-carboxamide] | – | – | < 50 nM | < 100 nM | < 100 nM | < 100 nM | 100 to 500 nM
CC(C)C[C@H](NC(=O)c1ccc2[nH]nc(-c3ccc(N4CCN(C5COC5)CC4)cc3)c2c1)c1ccccc1F [Example A275, (S)-N-(1-(2-fluorophenyl)-3-methylbutyl)-3-(4-(4-(oxetan-3-yl)piperazin-1-yl)phenyl)-1H-indazole-5-carboxamide] | – | – | < 50 nM | < 100 nM | < 100 nM | < 100 nM | < 100 nM
CC(C)[C@H](NC(=O)c1ccc2[nH]nc(-c3ccc(OC4CN(C5COC5)C4)cc3)c2c1)c1ccccc1Cl [Example A296, (S)-N-(1-(2-chlorophenyl)-2-methylpropyl)-3-(4-((1-(oxetan-3-yl)azetidin-3-yl)oxy)phenyl)-1H-indazole-5-carboxamide] | – | – | < 50 nM | < 100 nM | < 100 nM | < 100 nM | –
CC(C)(C)CC(NC(=O)c1ccc2[nH]nc(-c3ccc(N4CCN(C5COC5)CC4)cc3)c2c1)c1ccccc1F (centres unmarked) [Example A308, N-(1-(2-fluorophenyl)-3,3-dimethylbutyl)-3-(4-(4-(oxetan-3-yl)piperazin-1-yl)phenyl)-1H-indazole-5-carboxamide] | – | – | < 50 nM | < 100 nM | – | – | –
O=C(NC(c1ccsc1)C1CCC1)c1ccc2[nH]nc(-c3ccc(OC4CCN(C5COC5)CC4)cc3)c2c1 (centres unmarked) [Example A331, N-(cyclobutyl(thiophen-3-yl)methyl)-3-(4-((1-(oxetan-3-yl)piperidin-4-yl)oxy)phenyl)-1H-indazole-5-carboxamide] | – | – | < 50 nM | < 100 nM | < 100 nM | < 100 nM | –
O=C(N[C@H](c1ccccc1)C1CC1)c1ccc2[nH]nc(-c3ccc(OC4CC5CCC(C4)N5C4COC4)cc3)c2c1 (stereo partly drawn) [Example A336, N-((S)-cyclopropyl(phenyl)methyl)-3-(4-(((1R,3R,5S)-8-(oxetan-3-yl)-8-azabicyclo[3.2.1]octan-3-yl)oxy)phenyl)-1H-indazole-5-carboxamide] | – | – | < 50 nM | < 100 nM | 100 to 500 nM | 100 to 500 nM | –
CCC(CNC(=O)c1ccc2[nH]nc(-c3ccc(OC4CCN(C)CC4)cc3)c2c1)c1ccccc1 (centres unmarked) [Example A408, 3-(4-((1-methylpiperidin-4-yl)oxy)phenyl)-N-(2-phenylbutyl)-1H-indazole-5-carboxamide] | – | – | < 50 nM | < 100 nM | – | – | –
CC(C)(C)C[C@H](NC(=O)c1ccc2[nH]nc(-c3ccc(N4C5COCC4CC(O)C5)cc3)c2c1)c1ccccc1 (stereo partly drawn) [Example A426, N-((S)-3,3-dimethyl-1-phenylbutyl)-3-(4-((1R,5S,7R)-7-hydroxy-3-oxa-9-azabicyclo[3.3.1]nonan-9-yl)phenyl)-1H-indazole-5-carboxamide] | – | – | < 50 nM | < 100 nM | – | – | –

The remaining lines, values ahead:

GI50 [1, 3] | GI50 [2, 4] | IC50 (human PLK4) | IC50 (human TTK) | GI50 ([1]; Homo sapiens, PA-1) | GI50 [2] | GI50 (Breast cancer cells) | Compound
> 500 nM | 100 to 500 nM | < 50 nM | – | – | – | – | COc1ccccc1C(C(=O)Nc1ccc2[nH]nc(-c3ccc(OC4CCN(C)CC4)cc3)c2c1)C1CCCC1 (centres unmarked) [Example A156, 2-cyclopentyl-2-(2-methoxyphenyl)-N-(3-(4-((1-methylpiperidin-4-yl)oxy)phenyl)-1H-indazol-5-yl)acetamide]
100 to 500 nM | 100 to 500 nM | < 50 nM | – | – | – | – | CN1CCC(Oc2ccc(-c3n[nH]c4ccc(NC(=O)C(c5ccccc5F)C5CCCC5)cc34)cc2)CC1 (centres unmarked) [Example A162, 2-cyclopentyl-2-(2-fluorophenyl)-N-(3-(4-((1-methylpiperidin-4-yl)oxy)phenyl)-1H-indazol-5-yl)acetamide]
– | – | < 50 nM | < 100 nM | < 100 nM | 100 to 500 nM | 100 to 500 nM | O=C(N[C@@H](c1ccsc1)C1CCCC1)c1ccc2[nH]nc(-c3ccc(OC4CCN(CCO)CC4)cc3)c2c1 [Example A219, (R)-N-(cyclopentyl(thiophen-3-yl)methyl)-3-(4-((1-(2-hydroxyethyl)piperidin-4-yl)oxy)phenyl)-1H-indazole-5-carboxamide]
– | – | < 50 nM | < 100 nM | < 100 nM | 100 to 500 nM | 100 to 500 nM | C[C@@H](O)CN1CCC(Oc2ccc(-c3n[nH]c4ccc(C(=O)N[C@H](c5ccsc5)C5CC5)cc34)cc2)CC1 [Example A220, N-((S)-cyclopropyl(thiophen-3-yl)methyl)-3-(4-((1-((R)-2-hydroxypropyl)piperidin-4-yl)oxy)phenyl)-1H-indazole-5-carboxamide]
– | – | < 50 nM | < 100 nM | 100 to 500 nM | 100 to 500 nM | 100 to 500 nM | CN1CCC2(CCc3cc(-c4n[nH]c5ccc(C(=O)N[C@H](c6ccccc6)C6CC6)cc45)ccc3O2)CC1 [Example A249, (S)-N-(cyclopropyl(phenyl)methyl)-3-(1′-methylspiro[chroman-2,4′-piperidin]-6-yl)-1H-indazole-5-carboxamide]
